In paper PMC6274259, “New 3-Cyano-2-Substituted Pyridines Induce Apoptosis in MCF 7 Breast Cancer Cells” (Molecules, 2016):

Columns and labels:
[1] = test system: HCT-116 human colon carcinoma cell line; test: WST-1 cell viability assay, HCT-116; format: cell-based; conditions: WST-1, 24 h treatment, mean ± S.D of three independent experiments
Description: (§1) The synthesized compounds were screened for their cytotoxicity on five cancer cell lines, namely SK-OV-3, MCF-7, MDA-MB-231, HCT-116 and RKO, using a WST colorimetric assay. The assay principle is based upon the reduction of the tetrazolium salt WST-1 to formazan by cellular mitochondrial dehydrogenases present in viable cells. […] Among the latter compounds the benzohydrazide derivative 9a emerged with the lowest IC50 in this study against MCF-7 cells compared to 5-FU. […] Based on the fact that 9a had less cytotoxic effects on normal breast epithelial cells it was subjected to further studies.
(§2) The following cell lines were used for the screening stage, obtained from the American Type Culture Collection (ATCC, Manassas, VA, USA); SK-OV-3 (HTB-77), MCF-12A (ATCC CRL-10782), MDA-MB-231 (ATCC HTB-26), HCT-116 (CCL-247), RKO (CRL-2577) and sub-culturing of the above cell lines was conducted in 75 cm^2 flasks. The old culture media was removed and discarded after assessing the confluency of the cells and the cells were rinsed with 2–3 mL diluted trypsin (1×) (trypsin/EDTA solution consists of 0.025% trypsin and 0.01% EDTA in PBS), for about 5 minutes for complete detachment. The cells were observed under the inverted microscope until the cell layer is completely dispersed. 75 cm^2 flasks were prepared and 16 mL of DMEM media for SK-OV-3, MCF-7, MDA-MB-231, (DMEM 4500 mg glucose) and RPMI media for HCT-116 were added to each flask. The cells were aspirated gently and added to the flasks. DMEM 4500 mg/L high glucose with 10% FBS, 5% streptomycin and penicillin, RPMI 1640 (prepared by adding 5% heat-inactivated FCS and 2 mm glutamine) were used. DMEM was also used for MCF-12A cells with the addition of human epidermal growth factor 20 ng/mL, insulin 0.01 mg/mL and hydrocortisone 500 ng/mL.
(§3) The synthesized compounds were screened for their anti-proliferative activity using 5-FU (F6627-1G, Sigma-Aldrich, St. Louis, MO, USA) as reference compound. A concentration of 0.4% DMSO was used in all experiment after ensuring 100% viability of the cell lines with this concentration. A 25 mM stock concentration of all compounds was prepared for further studies and analysis.
(§4) Cells were trypsinized and placed in a 15 mL Falcon tube, the cells were centrifuged for 3 min at 1000 rpm. Trypsin is decanted using a sterile pipette and then the pellet is loosened by flicking the tube few times then 5–10 mL warm DMEM or RPMI were added to the Falcon tube and the pellet is resuspended. Cell count was done next by taking 10 μL of the suspension into the cell counting slide and read under 10× cells/mL. A cell stock of 50,000 cells/mL was prepared for the 96 wells. Cells (100 μL) were added to each well using a sterile pipette each time to ensure consistency. The experiment was planned ahead of time using excel sheet, 3–6 wells were reserved as blank media while 3–6 wells for vehicle (DMSO). The plate was incubated for 24 h for compound treatment step. DMEM media was used to prepare different dilutions of the compounds. The old DMEM media was removed from the wells using sterile pipette in the hood and the media was replaced with 100 μL media with each compound. The plate was incubated for 24 h. After 24 h incubation, WST-1 reagent (Sigma) was added to each well and then the plate was incubated for 1 h before measuring the absorbance using VICTOR™ Multilabel Plate Reader (Perkin Elmer, Beaconsfield, UK). The absorbance of the colored solution can be quantified by measuring at a certain wavelength (usually between 500–600 nm), in this experiment the first reading was conducted at 540 nm and the second reading at 690 nm for the reference wavelength. The percentage of cell viability was determined as the ratio of the absorbance of the sample vs the control. Three independent experiments were performed. […] 5-Florouracil (Sigma-Aldrich, F6627-1G) was used as reference standard.

[2] = test system: SK-OV-3 human ovarian carcinoma cell line; test: WST-1 cell viability assay, SK-OV-3; format: cell-based; conditions: WST-1, 24 h treatment, mean ± S.D of three independent experiments
Description: as §1, §2, §3, §4

[3] = test system: MCF-7 human breast adenocarcinoma cell line; test: WST-1 cell viability assay, MCF-7; format: cell-based; conditions: WST-1, 24 h treatment, mean ± S.D of three independent experiments
Description: as §1, §2, §3, §4

[4] = test system: RKO human colon carcinoma cell line; test: WST-1 cell viability assay, RKO; format: cell-based; conditions: WST-1, 24 h treatment, mean ± S.D of three independent experiments
Description: as §1, §2, §3, §4

[5] = test system: MDA-MB-231 human breast adenocarcinoma cell line; test: WST-1 cell viability assay, MDA-MB-231; format: cell-based; conditions: WST-1, 24 h treatment, mean ± S.D of three independent experiments
Description: as §1, §2, §3, §4

[6] = Homo sapiens, Colon carcinoma cell

Row | SMILES | IC50 ([1]; Homo sapiens, HCT-116) | IC50 ([2]; Homo sapiens, SK-OV-3) | IC50 ([3]; Homo sapiens, MCF7, 24 h) | IC50 [4, 6] | IC50 ([5]; Homo sapiens, MDA-MB-231) | melting point | IC50 [1] | IC50 [2] | IC50 [3] | IC50 [4] | IC50 [5]
1 | COc1ccc(-c2cc(-c3ccc(OC)c(OC)c3)c(C#N)c(OC)n2)cc1OC [Compound 4a, 2-Methoxy-4,6-bis(3,4-dimethoxyphenyl)pyridine-3-carbonitrile] | 20.3 ± 0.85 µM | 11.4 ± 0.72 µM | 9.08 ± 0.37 µM | 13.2 ± 0.77 µM | 32.1 ± 0.84 µM | – | – | – | – | – | –
2 | CCOc1nc(-c2ccc(OC)c(OC)c2)cc(-c2ccc(OC)c(OC)c2)c1C#N [Compound 4b, 2-Ethoxy-4,6-bis(3,4-dimethoxyphenyl)pyridine-3-carbonitrile] | 26.2 ± 1.22 µM | 18.2 ± 0.98 µM | 15.5 ± 0.46 µM | 19.8 ± 0.37 µM | 40 ± 1.36 µM | – | – | – | – | – | –
3 | CCCOc1nc(-c2ccc(OC)c(OC)c2)cc(-c2ccc(OC)c(OC)c2)c1C#N [Compound 4c, 4,6-bis(3,4-Dimethoxyphenyl)-2-propoxypyridine-3-carbonitrile] | 10.1 ± 0.76 µM | 22.1 ± 1.32 µM | 12.3 ± 0.77 µM | 18.1 ± 1.03 µM | 44.9 ± 1.74 µM | – | – | – | – | – | –
4 | COc1ccc(-c2cc(-c3ccc(OC)c(OC)c3)c(C#N)c(OCC(C)=O)n2)cc1OC [Compound 4d, 4,6-bis(3,4-Dimethoxyphenyl)-2-(2-oxopropoxy)pyridine-3-carbonitrile] | 13.1 ± 0.84 µM | 25.2 ± 0.76 µM | 20.3 ± 0.98 µM | 17.4 ± 0.44 µM | 35.8 ± 0.96 µM | 110 to 112 °C | – | – | – | – | –
5 | CCOC(=O)COc1nc(-c2ccc(OC)c(OC)c2)cc(-c2ccc(OC)c(OC)c2)c1C#N [Compound 5, Ethyl 2-(3-Cyano-4,6-bis(3,4-dimethoxyphenyl)pyridin-2-yloxy)acetate] | 14.9 ± 0.98 µM | 10.2 ± 0.44 µM | 15.4 ± 0.94 µM | 22.1 ± 0.97 µM | 25.1 ± 0.87 µM | – | – | – | – | – | –
6 | O=c1[nH]cc(F)c(=O)[nH]1 [Compound 5-FU, 5-Florouracil, reference compound] | – | – | – | – | – | – | 12.2 ± 1.1 µM | 32.2 ± 1.03 µM | 7.06 ± 0.91 µM | 20.2 ± 1.16 µM | 15.1 ± 0.94 µM
7 | COc1ccc(-c2cc(-c3ccc(OC)c(OC)c3)c(C#N)c(OCC(=O)NNC(=S)SC)n2)cc1OC [Compound 7a, Methyl 2-[2-(3-cyano-4,6-bis(3,4-dimethoxyphenyl)pyridin-2-yloxy)acetyl]hydrazinecarbodithioate] | 23.2 ± 0.95 µM | 9.01 ± 0.42 µM | 11.2 ± 0.22 µM | 11.2 ± 0.91 µM | 30.1 ± 0.88 µM | 151 to 153 °C | – | – | – | – | –
8 | CCSC(=S)NNC(=O)COc1nc(-c2ccc(OC)c(OC)c2)cc(-c2ccc(OC)c(OC)c2)c1C#N [Compound 7b, Ethyl 2-[2-(3-cyano-4,6-bis(3,4-dimethoxyphenyl)pyridin-2-yloxy)acetyl]hydrazinecarbodithioate] | 9.1 ± 0.97 µM | 12.3 ± 0.88 µM | 18.1 ± 1.76 µM | 15.2 ± 1.13 µM | 37.9 ± 1.25 µM | 144 to 146 °C | – | – | – | – | –
9 | COc1ccc(-c2cc(-c3ccc(OC)c(OC)c3)c(C#N)c(OCC(=O)NNC(=S)SCCN3CCOCC3)n2)cc1OC [Compound 7c, 2-Morpholinoethyl-2-[2-(3-cyano-4,6-bis(3,4-dimethoxyphenyl)pyridin-2-yloxy)acetyl]hydrazinecarbo-dithioate] | 26.9 ± 0.97 µM | 5.12 ± 0.11 µM | 7.1 ± 0.44 µM | 20.3 ± 0.76 µM | 31.7 ± 0.89 µM | 158 to 160 °C | – | – | – | – | –
10 | COc1ccc(-c2cc(-c3ccc(OC)c(OC)c3)c(C#N)c(OCC(=O)NNC(=S)SCCN3CCCCC3)n2)cc1OC [Compound 7d, 2-(Piperidin-1-yl)-ethyl-2-[2-(3-cyano-4,6-bis(3,4-dimethoxyphenyl)pyridin-2-yloxy)acetyl]hydrazinecarbo-dithioate] | 11.2 ± 1.26 µM | 10.1 ± 0.98 µM | 14.3 ± 0.95 µM | 25 ± 1.33 µM | 35.5 ± 1.03 µM | 160 to 162 °C | – | – | – | – | –
11 | COc1ccc(C=NNC(=O)COc2nc(-c3ccc(OC)c(OC)c3)cc(-c3ccc(OC)c(OC)c3)c2C#N)cc1 [Compound 8a, 2-[3-Cyano-4,6-bis(3,4-dimethoxyphenyl)pyridin-2-yl]oxy-N'-(4-methoxybenzylidene)acetohydrazide] | 28.8 ± 0.31 µM | 14.1 ± 0.95 µM | 12 ± 0.96 µM | 12.32 ± 0.02 µM | 25.3 ± 1.24 µM | 163 to 164 °C | – | – | – | – | –
12 | COc1ccc(C=NNC(=O)COc2nc(-c3ccc(OC)c(OC)c3)cc(-c3ccc(OC)c(OC)c3)c2C#N)cc1OC [Compound 8b, 2-[3-Cyano-4,6-bis(3,4-dimethoxyphenyl)pyridin-2-yl]oxy-N'-(3,4-dimethoxybenzylidene)acetohydrazide] | 25.2 ± 0.89 µM | 10.2 ± 0.92 µM | 9.31 ± 0.98 µM | 14.2 ± 0.91 µM | 32.3 ± 0.87 µM | 190 to 192 °C | – | – | – | – | –
13 | COc1ccc(-c2cc(-c3ccc(OC)c(OC)c3)c(C#N)c(OCC(=O)NN=Cc3cc(OC)c(OC)c(OC)c3)n2)cc1OC [Compound 8c, 2-[3-Cyano-4,6-bis(3,4-dimethoxyphenyl)pyridin-2-yl]oxy-N'-(3,4,5-trimethoxybenzylidene)acetohydrazide] | 25.9 ± 0.83 µM | 12.1 ± 0.98 µM | 15.3 ± 0.74 µM | 16.3 ± 0.37 µM | 20.3 ± 1.06 µM | 232 to 234 °C | – | – | – | – | –
14 | COc1ccc(C(=O)NNC(=O)COc2nc(-c3ccc(OC)c(OC)c3)cc(-c3ccc(OC)c(OC)c3)c2C#N)cc1 [Compound 9b, N'-[2-(3-cyano-4,6-bis(3,4-dimethoxyphenyl)pyridin-2-yloxy)acetyl]-4-methoxybenzo hydrazide] | 17.9 ± 0.74 µM | 7.08 ± 0.16 µM | 10.2 ± 0.92 µM | 9.95 ± 1.06 µM | 19.3 ± 0.86 µM | 170 to 172 °C | – | – | – | – | –
15 | COc1ccc(-c2cc(-c3ccc(OC)c(OC)c3)c(C#N)c(OCC(=O)NNS(=O)(=O)c3ccccc3)n2)cc1OC [Compound 10a, N'-[2-(3-cyano-4,6-bis(3,4-dimethoxyphenyl)pyridin-2-yloxy)acety]benzenesulfohydrazide] | 21.8 ± 0.85 µM | 11.34 ± 0.02 µM | 13.4 ± 0.98 µM | 12.1 ± 1.26 µM | 26.8 ± 0.33 µM | 120 to 122 °C | – | – | – | – | –
16 | COc1ccc(S(=O)(=O)NNC(=O)COc2nc(-c3ccc(OC)c(OC)c3)cc(-c3ccc(OC)c(OC)c3)c2C#N)cc1 [Compound 10b, N'-[2-(3-cyano-4,6-bis(3,4-dimethoxyphenyl)pyridin-2-yloxy)acetyl]-4-methoxybenzenesulfohydrazide] | 16.1 ± 1.07 µM | 9.17 ± 0.38 µM | 8.12 ± 0.47 µM | 15.7 ± 0.86 µM | 22.4 ± 1.71 µM | 190 to 192 °C | – | – | – | – | –
17 | COc1ccc(-c2cc(-c3ccc(OC)c(OC)c3)c(C#N)c(OCc3nnc(S)o3)n2)cc1OC [Compound 14, 2-((5-Mercapto-1,3,4-oxadiazol-2-yl)methoxy)-4,6-bis(3,4-dimethoxyphenyl)pyridine-3-carbonitrile] | > 50 µM | 30.3 ± 1.12 µM | > 50 µM | > 50 µM | > 50 µM | – | – | – | – | – | –
